pKd: −log10 of the molar value.

Sequence of Peptidyl-prolyl cis-trans isomerase FKBP1A (P62942 whole entry): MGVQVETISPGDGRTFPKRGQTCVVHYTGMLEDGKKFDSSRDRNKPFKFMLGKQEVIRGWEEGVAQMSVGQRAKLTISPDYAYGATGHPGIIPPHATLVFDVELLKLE

The assay concerns the target Peptidyl-prolyl cis-trans isomerase FKBP1A (Homo sapiens, UniProt P62942). As to the kind of experiment: Ability to displace radiolabeled FK-506 derivative from FK506 binding protein 12.
In the case of `C=CCCC[C@H](OC(=O)[C@@H]1CCCCN1C(=O)C(=O)[C@]1(O)O[C@H](COC)[C@@H](OC)C[C@H]1C)/C(C)=C/[C@@H]1CC[C@@H](O)[C@H](OC)C1`, the pKd (usually −log10 of the Kd, conventionally taken in molar units) was 8.00.
Turning to `C=CCCC[C@H](OC(=O)[C@@H]1CCCCN1C(=O)C(=O)[C@@]1(O)CC[C@H](OC)[C@@H](COC)O1)/C(C)=C/[C@@H]1CC[C@@H](O)[C@H](OC)C1`, the pKd was 4.40.
Take `C=CCCC[C@H](OC(=O)[C@@H]1CCCCN1C(=O)C(=O)[C@@]1(O)CCCCO1)/C(C)=C/[C@@H]1CC[C@@H](O)[C@H](OC)C1`: the pKd was 4.54.

Values taken from ChEMBL document CHEMBL1127912, “The contribution to binding of the pyranoside substituents in the excised binding domain of FK-506” (Bioorg Med Chem Lett, 1994).
